Values of other authors as cited in PMC4358631 (Journal of Medicinal Chemistry, 2014).

Target: α3β4 nAChR (Rattus norvegicus, UniProt P04757+P12392)
Details: compounds bind to the central lumen of the receptor

α3β4 nAChR, sequence (P04757 26-499): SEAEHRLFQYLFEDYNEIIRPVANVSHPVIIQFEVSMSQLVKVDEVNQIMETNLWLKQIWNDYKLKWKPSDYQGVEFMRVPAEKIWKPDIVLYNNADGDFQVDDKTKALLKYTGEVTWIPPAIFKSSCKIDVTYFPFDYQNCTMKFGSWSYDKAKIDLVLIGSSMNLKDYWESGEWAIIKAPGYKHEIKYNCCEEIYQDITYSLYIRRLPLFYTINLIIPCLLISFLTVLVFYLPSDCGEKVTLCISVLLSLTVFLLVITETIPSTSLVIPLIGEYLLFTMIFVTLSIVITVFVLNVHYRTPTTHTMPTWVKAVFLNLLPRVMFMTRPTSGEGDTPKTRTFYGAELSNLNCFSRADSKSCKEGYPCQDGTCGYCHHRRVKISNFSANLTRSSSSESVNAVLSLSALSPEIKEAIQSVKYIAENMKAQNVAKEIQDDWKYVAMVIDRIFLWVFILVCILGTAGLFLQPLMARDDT
α3β4 nAChR, sequence (P12392 22-495 limits assumed): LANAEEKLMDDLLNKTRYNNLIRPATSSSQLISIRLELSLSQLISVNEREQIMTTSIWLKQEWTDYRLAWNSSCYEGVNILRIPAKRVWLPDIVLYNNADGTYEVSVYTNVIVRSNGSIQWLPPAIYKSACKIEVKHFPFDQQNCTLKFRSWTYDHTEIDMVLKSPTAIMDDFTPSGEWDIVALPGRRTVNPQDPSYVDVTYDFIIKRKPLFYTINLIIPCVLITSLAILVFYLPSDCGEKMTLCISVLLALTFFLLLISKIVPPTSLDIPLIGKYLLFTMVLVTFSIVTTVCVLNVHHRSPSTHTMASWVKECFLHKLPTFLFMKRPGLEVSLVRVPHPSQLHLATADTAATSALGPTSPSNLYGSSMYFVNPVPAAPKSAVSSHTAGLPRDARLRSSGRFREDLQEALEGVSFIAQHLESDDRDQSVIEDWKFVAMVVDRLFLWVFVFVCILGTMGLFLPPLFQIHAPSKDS

Structure (SMILES) | inhibition of [3H]epibatidine binding
COCC[C@H]1CC2CN3CCc4c([nH]c5ccccc45)[C@](C(=O)OC)(C2)[C@H]13 [18-MC, 18-methoxycoronaridine] | do not inhibit
CNC1(C)C2CCC(C2)C1(C)C (centres unmarked) [mecamylamine] | do not inhibit
